Results as given in ChEMBL document CHEMBL1201862, “PubChem BioAssay data set” (2004).
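Briefly, cells in 96-well plates were exposed to five compound concentrations for 48 h, and endpoints were estimated by linear interpolation. The concentration for 50% growth inhibition is given as GI50.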 Activity calls are given as the source filed them. Cut-off read from the data, not from the text of the source: active = GI50 up to about 1.1 µM and inactive = higher.

Experiments:
Test in all cases: growth of human tumour cells (NCI), 48 h
SK-MEL-2 = test system: SK-MEL-2
SK-MEL-5 = test system: SK-MEL-5
HT-29 = test system: HT-29
UACC-257 = test system: UACC-257
HOP-92 = test system: HOP-92
SF-295 = test system: SF-295
UO-31 = test system: UO-31
MDA-MB-435 = test system: MDA-MB-435
KM12 = test system: KM12
BT-549 = test system: BT-549
MCF7 = test system: MCF7
COLO 205 = test system: COLO 205
HCT-15 = test system: HCT-15
MDA-MB-231 = test system: MDA-MB-231
OVCAR-5 = test system: OVCAR-5
DU-145 = test system: DU-145
NCI-H460 = test system: NCI-H460
ACHN = test system: ACHN
786-0 = test system: 786-0
Hs-578T = test system: Hs-578T

SMILES | GI50 (SK-MEL-2) | GI50 (SK-MEL-5) | GI50 (HT-29) | GI50 (UACC-257) | GI50 (HOP-92) | GI50 (SF-295) | GI50 (UO-31) | GI50 (MDA-MB-435) | GI50 (KM12) | GI50 (BT-549) | GI50 (MCF7) | GI50 (COLO 205) | GI50 (HCT-15) | GI50 (MDA-MB-231) | GI50 (OVCAR-5) | GI50 (DU-145) | GI50 (NCI-H460) | GI50 (ACHN) | GI50 (786-0) | GI50 (Hs-578T)
Nc1ccn([C@H]2CO[C@@H](CO)[C@@H]2O)c(=O)n1 | > 100 µM (inactive) | > 100 µM (inactive) | > 100 µM (inactive) | > 100 µM (inactive) | > 100 µM (inactive) | > 100 µM (inactive) | > 100 µM (inactive) | > 100 µM (inactive) | > 100 µM (inactive) | > 100 µM (inactive) | > 100 µM (inactive) | > 100 µM (inactive) | > 100 µM | > 100 µM (inactive) | > 100 µM (inactive) | > 100 µM (inactive) | > 100 µM (inactive) | > 100 µM (inactive) | > 100 µM (inactive) | 
CC1(C)OCC(COC(=O)NCn2cc(-c3ccccc3)nn2)O1 (stereo not drawn) | > 100 µM (inactive) | > 100 µM (inactive) | > 100 µM (inactive) | > 100 µM (inactive) | > 100 µM (inactive) | > 100 µM (inactive) |  |  | > 100 µM (inactive) | > 100 µM (inactive) | > 100 µM (inactive) | > 100 µM (inactive) | > 100 µM | > 100 µM (inactive) | > 100 µM (inactive) | > 100 µM (inactive) | > 100 µM (inactive) | > 100 µM (inactive) | > 100 µM (inactive) | 
COC1C(N(C)C)=C(c2ccccc2)C(=O)N2CCc3ccccc3C12 (stereo not drawn) | > 100 µM (inactive) | > 100 µM (inactive) | > 100 µM (inactive) | > 100 µM (inactive) | > 100 µM (inactive) | > 100 µM (inactive) | > 100 µM (inactive) | > 100 µM (inactive) | > 100 µM (inactive) |  | > 100 µM (inactive) | > 100 µM (inactive) | > 100 µM | > 100 µM (inactive) | > 100 µM (inactive) | > 100 µM (inactive) |  | > 100 µM (inactive) | > 100 µM (inactive) | > 100 µM (inactive)
c1cc2nnc1SCCSCCCSCCS2 | > 100 µM (inactive) | > 100 µM (inactive) | > 100 µM (inactive) | > 100 µM (inactive) | 46.5 µM (inactive) | > 100 µM (inactive) | > 100 µM (inactive) | > 100 µM (inactive) | > 100 µM (inactive) |  | > 100 µM (inactive) | > 100 µM (inactive) | > 100 µM | 29.6 µM (inactive) | > 100 µM (inactive) | 2.86 µM (inactive) | > 100 µM (inactive) | > 100 µM (inactive) | 67 µM (inactive) | > 100 µM (inactive)
C[C@@H](c1ccccc1)C(CC#N)[C@H]1CCC[C@]1(O)C#Cc1ccc2c(c1)OCO2 (stereo partly drawn) | 17.6 µM (inactive) | 18.6 µM (inactive) | 15.2 µM (inactive) | 18.2 µM (inactive) | 14 µM (inactive) | 18.1 µM (inactive) | 14.4 µM (inactive) | 16.6 µM (inactive) | 16.7 µM (inactive) |  | 18.4 µM (inactive) | 18.2 µM (inactive) | 16 µM | 17.5 µM (inactive) | 16.6 µM (inactive) | 16.8 µM (inactive) | 16.1 µM (inactive) | 16.6 µM (inactive) | 17.5 µM (inactive) | 20.8 µM (inactive)
Oc1cn(-c2ccc(Cl)cc2)nc1-c1n[nH]c(=S)n1-c1ccccc1 | 22.4 µM (inactive) | 4.19 µM (inactive) | 19.8 µM (inactive) | 20.7 µM (inactive) | > 100 µM (inactive) | 4.94 µM (inactive) | 14.2 µM (inactive) | 1.95 µM (inactive) | 4.36 µM (inactive) |  | 4.42 µM (inactive) | 23 µM (inactive) | 3.36 µM | 57.5 µM (inactive) | 24.2 µM (inactive) | 22.3 µM (inactive) | 10.6 µM (inactive) | 18.8 µM (inactive) | 11.6 µM (inactive) | 7.64 µM (inactive)
O=C1C(=Cc2cccc(O)c2)N=C(c2ccccc2)N1n1c(-c2ccccc2)nc2ccccc2c1=O |  | 23.7 µM (inactive) | 32.6 µM (inactive) | 29 µM (inactive) | 15.5 µM (inactive) | 24 µM (inactive) | 27.2 µM (inactive) | 35.6 µM (inactive) | 24.9 µM (inactive) |  |  | 31.4 µM (inactive) | 34.7 µM | 36.9 µM (inactive) | 37.1 µM (inactive) | 27.7 µM (inactive) | 23.6 µM (inactive) | 21.6 µM (inactive) | 39.8 µM (inactive) | 14.3 µM (inactive)
C=C1N(C=O)C(C)(C)N(O)C1(C)C | > 100 µM (inactive) | > 100 µM (inactive) | > 100 µM (inactive) | > 100 µM (inactive) | > 100 µM (inactive) | > 100 µM (inactive) | > 100 µM (inactive) | > 100 µM (inactive) | > 100 µM (inactive) |  | > 100 µM (inactive) | > 100 µM (inactive) | > 100 µM | > 100 µM (inactive) | > 100 µM (inactive) | > 100 µM (inactive) | > 100 µM (inactive) | > 100 µM (inactive) | > 100 µM (inactive) | > 100 µM (inactive)
O=C(O)c1ccccc1/C=C1\Cc2ccccc2C1=O | 67.1 µM (inactive) | 47.2 µM (inactive) | 38.2 µM (inactive) | > 100 µM (inactive) |  | > 100 µM (inactive) | > 100 µM (inactive) | > 100 µM (inactive) | > 100 µM (inactive) | 19.3 µM (inactive) | > 100 µM (inactive) | 48.4 µM (inactive) | > 100 µM |  | > 100 µM (inactive) | > 100 µM (inactive) | > 100 µM (inactive) | > 100 µM (inactive) | > 100 µM (inactive) | > 100 µM (inactive)
CCCC[C@@H](C)/C=C1\CN2CCC[C@H]2[C@@](C)(O)[C@@H]1O | > 100 µM (inactive) | 79.1 µM (inactive) | 43.2 µM (inactive) | > 100 µM (inactive) | 17.2 µM (inactive) | 55.7 µM (inactive) | 50.7 µM (inactive) | 96.2 µM (inactive) | > 100 µM (inactive) |  | 80.2 µM (inactive) | > 100 µM (inactive) | > 100 µM | > 100 µM (inactive) | > 100 µM (inactive) | 17.3 µM (inactive) | 16.7 µM (inactive) | 42 µM (inactive) | 45.2 µM (inactive) | > 100 µM (inactive)
CNC(=S)N(C1CCCCC1)C1CCCCC1 | 76.9 µM (inactive) | 49 µM (inactive) | 41.1 µM (inactive) | 34.1 µM (inactive) | 50.8 µM (inactive) | 61.2 µM (inactive) | 85.5 µM (inactive) | > 100 µM (inactive) | 55.8 µM (inactive) |  | 54.8 µM (inactive) | 66.1 µM (inactive) | > 100 µM | > 100 µM (inactive) | > 100 µM (inactive) | > 100 µM (inactive) | 50.9 µM (inactive) | 98.4 µM (inactive) | > 100 µM (inactive) | 26.3 µM (inactive)
CCC/N=C1\S/C(=C/c2ccc(OC)c(OC)c2)C(=O)N1c1ccccc1 | 31.8 µM (inactive) | 37.6 µM (inactive) | > 100 µM (inactive) | 76.7 µM (inactive) | 33.1 µM (inactive) | 11.3 µM (inactive) | 32.5 µM (inactive) | > 100 µM (inactive) | > 100 µM (inactive) | 74.8 µM (inactive) | > 100 µM (inactive) | > 100 µM (inactive) | > 100 µM | 20.6 µM (inactive) | 44.9 µM (inactive) |  | 61 µM (inactive) | 42.8 µM (inactive) | 13.1 µM (inactive) | 9.1 µM (inactive)
[O-][S+](C(c1ccccc1)=P(c1ccccc1)(c1ccccc1)c1ccccc1)c1ccc(Cl)cc1 (stereo not drawn) | 20.8 µM (inactive) | 12.1 µM (inactive) | 21.3 µM (inactive) | 12.5 µM (inactive) | 13.1 µM (inactive) | 33.7 µM (inactive) | 46.1 µM (inactive) | 11.7 µM (inactive) | 14.2 µM (inactive) |  | 17.9 µM (inactive) |  | 34.9 µM | 19.3 µM (inactive) | 41.9 µM (inactive) | 13.9 µM (inactive) | 24.2 µM (inactive) | 26.4 µM (inactive) | 30.8 µM (inactive) | 19.8 µM (inactive)
COc1cccc2c1C(=O)c1c(O)c3c(c(O)c1C2=O)CC(O)(C(C)=O)CC3OC1OC(COC(C)=O)C(OC(C)=O)C(OC(C)=O)C1OC(C)=O (stereo not drawn) | 55.7 µM (inactive) | 23.9 µM (inactive) | 25.7 µM (inactive) | < 0.01 µM (active) | 0.515 µM (active) | 17.2 µM (inactive) | > 100 µM (inactive) | 88.7 µM (inactive) | 52.7 µM (inactive) |  | 65.2 µM (inactive) | 79.4 µM (inactive) | 47.2 µM | 17.7 µM (inactive) | 24.1 µM (inactive) | 26.9 µM (inactive) | > 100 µM (inactive) | 17.4 µM (inactive) | 12.1 µM (inactive) | 14.5 µM (inactive)
C/C(=N\Nc1nc2ccccc2[nH]1)c1cnccn1 | 1.45 µM (inactive) | 0.881 µM (active) | 0.394 µM (active) | 2.94 µM (inactive) | 0.385 µM (active) | 1.77 µM (inactive) | 0.548 µM (active) | 0.822 µM (active) | 1.12 µM (active) | 6.04 µM (inactive) | 0.542 µM (active) | 0.415 µM (active) | 0.313 µM | 2.88 µM (inactive) | 6.84 µM (inactive) |  | 0.394 µM (active) | 0.231 µM (active) | 0.263 µM (active) | 19.8 µM (inactive)
